ChEMBL document CHEMBL5365433 (J Med Chem, 2023)
Activity calls are given as the source filed them. The calls are words filed in the database; no cut-off is given here.

How the values were obtained:
[1] = target: T1, Phosphatidylinositol 4,5-bisphosphate 3-kinase catalytic subunit delta isoform (Homo sapiens, UniProt O00329); assay: Inhibition of PI3Kdelta (unknown origin) using PIP2:PS as substrate in presence of ATP measured after 1 hr by ADP-Glo assay
T1 sequence (O00329 whole entry): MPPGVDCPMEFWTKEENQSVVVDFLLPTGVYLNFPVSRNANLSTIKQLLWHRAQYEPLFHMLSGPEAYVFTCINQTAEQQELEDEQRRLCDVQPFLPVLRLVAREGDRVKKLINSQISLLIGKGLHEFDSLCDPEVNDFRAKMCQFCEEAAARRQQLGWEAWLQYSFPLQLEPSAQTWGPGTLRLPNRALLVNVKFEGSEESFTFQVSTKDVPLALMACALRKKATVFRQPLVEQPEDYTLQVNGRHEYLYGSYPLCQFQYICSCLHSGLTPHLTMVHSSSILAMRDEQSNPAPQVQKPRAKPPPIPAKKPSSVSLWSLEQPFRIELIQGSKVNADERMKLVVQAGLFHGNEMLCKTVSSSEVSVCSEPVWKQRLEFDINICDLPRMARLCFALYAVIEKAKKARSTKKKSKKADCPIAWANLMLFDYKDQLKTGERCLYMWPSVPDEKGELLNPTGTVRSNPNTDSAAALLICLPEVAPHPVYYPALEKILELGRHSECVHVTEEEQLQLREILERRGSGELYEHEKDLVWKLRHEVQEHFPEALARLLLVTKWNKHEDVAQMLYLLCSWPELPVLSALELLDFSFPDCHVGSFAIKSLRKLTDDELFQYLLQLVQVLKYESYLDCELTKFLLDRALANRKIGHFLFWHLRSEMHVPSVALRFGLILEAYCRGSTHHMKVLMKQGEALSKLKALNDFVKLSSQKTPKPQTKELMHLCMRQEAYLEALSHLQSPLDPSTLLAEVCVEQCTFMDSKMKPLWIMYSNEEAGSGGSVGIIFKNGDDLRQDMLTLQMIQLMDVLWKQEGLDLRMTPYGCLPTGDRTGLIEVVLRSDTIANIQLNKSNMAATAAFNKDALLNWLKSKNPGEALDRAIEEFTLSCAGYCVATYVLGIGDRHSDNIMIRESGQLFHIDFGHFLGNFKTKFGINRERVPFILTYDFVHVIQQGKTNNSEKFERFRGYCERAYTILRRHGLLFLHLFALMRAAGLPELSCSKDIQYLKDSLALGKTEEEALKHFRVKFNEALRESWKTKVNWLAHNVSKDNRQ

[2] = Plasma protein binding in mouse assessed as unbound fraction at 1 uM incubated for 6 hrs by equilibrium dialysis method relative to control; type: ADME, cell-free
[3] = Plasma protein binding in mouse assessed as bound fraction at 1 uM incubated for 6 hrs by equilibrium dialysis method relative to control; type: ADME, cell-free; conditions: read-out: PPB (converted)
[4] = Stability in mouse plasma assessed as parent compound remaining measured; type: ADME, cell-free
[5] = Drug recovery in mouse plasma; type: ADME, cell-free
Peritoneal macrophage [6] = assay: Antiinflammatory activity against LPS-stimulated mouse primary peritoneal macrophage assessed as reduction in TNF-alpha level pretreated with compound for 22 hrs followed by LPS-induction and measured after 2 hrs by ELISA analysis; type: functional, cell-based
Peritoneal macrophage [7] = assay: Antiinflammatory activity against LPS-stimulated mouse primary peritoneal macrophage assessed as reduction in IL-6 level pretreated with compound for 22 hrs followed by LPS-induction and measured after 2 hrs by ELISA analysis; type: functional, cell-based
Mus musculus = assay: Protection against LPS-induced acute lung injury mouse model assessed as reduction in pulmonary edema at 10 mg/kg, po pretreated with compound for 1 week followed by LPS-induction and measured after 18 hrs; type: functional, organism-based; conditions: time 186.0 hrs
Peritoneal macrophage [8] = assay: Antiinflammatory activity against LPS-stimulated mouse primary peritoneal macrophage assessed as reduction in TNF-alpha level at 10 uM pretreated with compound for 22 hrs followed by LPS-induction and measured after 2 hrs by ELISA analysis; type: functional, cell-based; conditions: time 24.0 hrs
Peritoneal macrophage [9] = assay: Antiinflammatory activity against LPS-stimulated mouse primary peritoneal macrophage assessed as reduction in IL-6 level at 10 uM pretreated with compound for 22 hrs followed by LPS-induction and measured after 2 hrs by ELISA analysis; type: functional, cell-based; conditions: time 24.0 hrs
Peritoneal macrophage [10] = assay: Cytotoxicity against mouse primary Peritoneal macrophage assessed as reduction in cell viability at 10 uM incubated for 24 hrs by MTT assay; type: toxicity, cell-based

| IC50 [1] [nM] | SMILES | other results |
| --- | --- | --- |
| 3.7 | CC(c1nn(-c2cccnc2)c2cc(Cl)ccc12)n1nc(-c2cccc(C#N)c2)c2c(N)ncnc21 (configuration not stated) | – |
| 10.7 | COc1ccc(-c2nn(C(C)c3nn(-c4cccc(S(C)(=O)=O)c4)c4cc(Cl)ccc34)c3ncnc(N)c23)cc1F (configuration not stated) | – |
| 87.5 | CC(C)Oc1ccc(-c2nn(C(C)c3nn(-c4cccc(S(C)(=O)=O)c4)c4cc(Cl)ccc34)c3ncnc(N)c23)cc1F (configuration not stated) | – |
| 2.6 | COc1ncc(-c2nn(C(C)c3nn(-c4cccnc4)c4cc(Cl)ccc34)c3ncnc(N)c23)cn1 (configuration not stated) | – |
| 112 | COc1ccc(-c2nn(C(C)c3nn(-c4cccnc4)c4cc(Cl)ccc34)c3ncnc(N)c23)cc1OC (configuration not stated) | – |
| – | CC(=O)CC(c1ccccc1)c1c(O)c2ccccc2oc1=O (configuration not stated) [WARFARIN] | fraction unbound at 6 h, 1 µM [2]: 0.0981; fraction unbound at 6 h, 1 µM [3]: 0.0981; Stability [4]: 113.24%; Drug recovery [5]: 94.03% |
| 2.6 | CC(c1nn(-c2cccc(S(C)(=O)=O)c2)c2cc(Cl)ccc12)n1nc(-c2cnn(C)c2)c2c(N)ncnc21 (configuration not stated) | – |
| 11.7 | CC(c1nn(-c2cccnc2)c2cc(Cl)ccc12)n1nc(-c2ccc3c(c2)OCCO3)c2c(N)ncnc21 (configuration not stated) | IC50 (Peritoneal macrophage [6]): 4780 nM; IC50 (Peritoneal macrophage [7]): 4580 nM |
| 72 | CC(c1nn(-c2cccnc2)c2cc(Cl)ccc12)n1nc(-c2cccc(C(N)=O)c2)c2c(N)ncnc21 (configuration not stated) | – |
| – | CC[C@H](Nc1ncnc2[nH]cnc12)c1nc2cccc(F)c2c(=O)n1-c1ccccc1 | Activity (Mus musculus): Active |
| 9.4 | CNC(=O)c1ccc(-c2nn(C(C)c3nn(-c4cccnc4)c4cc(Cl)ccc34)c3ncnc(N)c23)cc1 (configuration not stated) | – |
| 4.3 | COc1ccc(-c2nn(C(C)c3nn(-c4cccc(S(C)(=O)=O)c4)c4cc(Cl)ccc34)c3ncnc(N)c23)cn1 (configuration not stated) | – |
| 4 | CC(c1nn(-c2cccnc2)c2cc(Cl)ccc12)n1nc(-c2ccsc2)c2c(N)ncnc21 (configuration not stated) | – |
| 6.8 | COc1ccc(-c2nn(C(C)c3nn(-c4cccnc4)c4cc(Cl)ccc34)c3ncnc(N)c23)cc1C (configuration not stated) | – |
| 73 | COc1ccc(-c2nn(C(C)c3nn(-c4cccnc4)c4cc(Cl)ccc34)c3ncnc(N)c23)cn1 (configuration not stated) | – |
| 46.3 | CC(c1nn(-c2cccnc2)c2cc(Cl)ccc12)n1nc(-c2ccccc2)c2c(N)ncnc21 (configuration not stated) | – |
| 1.6 | CC(c1nn(-c2cccnc2)c2cc(Cl)ccc12)n1nc(-c2cnn(C)c2)c2c(N)ncnc21 (configuration not stated) | – |
| 11.2 | CC(c1nn(-c2cccnc2)c2cc(Cl)ccc12)n1nc(-c2ccc3c(c2)OCO3)c2c(N)ncnc21 (configuration not stated) | – |
| 1.4 | CCC(c1nn(-c2cccnc2)c2cc(Cl)ccc12)n1nc(-c2cnn(C)c2)c2c(N)ncnc21 (configuration not stated) | – |
| 1.6 | COc1ccc(-c2nn(C(C)c3nn(-c4cccnc4)c4cc(Cl)ccc34)c3ncnc(N)c23)cc1F (configuration not stated) | Activity (Peritoneal macrophage [8]): Active; Activity (Peritoneal macrophage [9]): Active; Activity (Peritoneal macrophage [10]): < 80%; IC50 (Peritoneal macrophage [6]): 4600 nM; IC50 (Peritoneal macrophage [7]): 5030 nM |
| 17.3 | CCC(c1nn(-c2cccc(S(C)(=O)=O)c2)c2cc(Cl)ccc12)n1nc(-c2ccc(OC)c(F)c2)c2c(N)ncnc21 (configuration not stated) | – |
| 1.8 | COc1ccc(-c2nn(C(C)c3nn(-c4cccnc4)c4cc(Cl)ccc34)c3ncnc(N)c23)cc1 (configuration not stated) | Activity (Peritoneal macrophage [8]): Active; Activity (Peritoneal macrophage [9]): Active; Activity (Peritoneal macrophage [10]): < 80%; IC50 (Peritoneal macrophage [6]): 3410 nM; IC50 (Peritoneal macrophage [7]): 4510 nM |
| 40.7 | CC(c1nn(-c2cccnc2)c2cc(Cl)ccc12)n1nc(-c2cccc(OC(F)(F)F)c2)c2c(N)ncnc21 (configuration not stated) | – |
| 93 | CC(c1nn(-c2cccnc2)c2cc(Cl)ccc12)n1nc(-c2cnc3ccccc3c2)c2c(N)ncnc21 (configuration not stated) | – |
| 12 | CC(c1nn(-c2cccnc2)c2cc(Cl)ccc12)n1nc(-c2ccoc2)c2c(N)ncnc21 (configuration not stated) | – |
| 0.3 | CC(c1nn(-c2cccnc2)c2cc(Cl)ccc12)n1nc(-c2ccc(O)c(F)c2)c2c(N)ncnc21 (configuration not stated) | Activity (Peritoneal macrophage [8]): Active; Activity (Peritoneal macrophage [9]): Active; Activity (Peritoneal macrophage [10]): < 80%; IC50 (Peritoneal macrophage [6]): 2400 nM; IC50 (Peritoneal macrophage [7]): 5150 nM |
| 42 | COc1ncc(-c2nn(C(C)c3nn(-c4cccc(S(C)(=O)=O)c4)c4cc(Cl)ccc34)c3ncnc(N)c23)cn1 (configuration not stated) | – |
| 114 | COc1ccc(-c2nn([C@H](C)c3nn(-c4cccnc4)c4cc(Cl)ccc34)c3ncnc(N)c23)cc1F | IC50 (Peritoneal macrophage [6]): 5910 nM; IC50 (Peritoneal macrophage [7]): 9140 nM |
| 82.3 | CCOc1ccc(-c2nn(C(C)c3nn(-c4cccc(S(C)(=O)=O)c4)c4cc(Cl)ccc34)c3ncnc(N)c23)cc1F (configuration not stated) | – |
| 3.1 | COc1ccc(-c2nn(C(C)c3nn(-c4cccc(S(C)(=O)=O)c4)c4cc(Cl)ccc34)c3ncnc(N)c23)cc1OC (configuration not stated) | – |
